Results reported in paper PMC11073699, “Odorant receptors for floral- and plant-derived volatiles in the yellow fever mosquito, Aedes aegypti (Diptera: Culicidae)” (PLOS ONE, 2024).
“And” between values parts separate entries of the source, which are not always exact repeats. Equal entries are not always repeated.

Legend:
Format in all cases: cell-based
[1] = target: T1, AaegOR13 (Aedes aegypti, UniProt Q16Z13); assay: Two-electrode voltage clamp of Xenopus laevis oocytes expressing AaegOR13/Orco (blends, unitary compounds, concentration-response); conditions: unitary compounds
T1 sequence (Q16Z13 1-389): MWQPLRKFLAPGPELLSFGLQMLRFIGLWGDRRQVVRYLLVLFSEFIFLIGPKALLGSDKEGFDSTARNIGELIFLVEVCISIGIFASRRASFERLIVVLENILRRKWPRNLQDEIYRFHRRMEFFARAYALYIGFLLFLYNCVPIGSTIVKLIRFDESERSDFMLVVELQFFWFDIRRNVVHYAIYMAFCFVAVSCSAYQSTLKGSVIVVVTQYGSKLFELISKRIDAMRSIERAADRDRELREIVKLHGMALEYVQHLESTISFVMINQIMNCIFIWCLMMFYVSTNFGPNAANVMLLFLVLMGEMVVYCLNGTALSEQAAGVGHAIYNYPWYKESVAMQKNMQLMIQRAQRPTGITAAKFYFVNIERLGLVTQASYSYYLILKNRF
T1 sequence (Q178U6 1-478 partner): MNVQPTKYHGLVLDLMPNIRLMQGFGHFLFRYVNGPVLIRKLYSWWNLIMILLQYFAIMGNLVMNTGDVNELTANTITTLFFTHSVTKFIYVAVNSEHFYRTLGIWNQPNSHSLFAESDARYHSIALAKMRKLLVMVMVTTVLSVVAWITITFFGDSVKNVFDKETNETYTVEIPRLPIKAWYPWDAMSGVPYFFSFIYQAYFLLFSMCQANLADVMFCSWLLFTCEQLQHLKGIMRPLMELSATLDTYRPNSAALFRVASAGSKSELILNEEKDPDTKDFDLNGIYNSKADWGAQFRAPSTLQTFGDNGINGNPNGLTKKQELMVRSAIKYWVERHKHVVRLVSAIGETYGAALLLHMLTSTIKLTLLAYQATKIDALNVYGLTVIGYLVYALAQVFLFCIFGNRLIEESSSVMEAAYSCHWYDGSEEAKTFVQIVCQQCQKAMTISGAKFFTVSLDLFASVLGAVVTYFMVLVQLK
Description: (§1) The coding regions of ten AaegOR genes of interest (S3 File) and AaegOrco were synthesized by Twist Bioscience (San Francisco, CA, USA) and cloned into the pENTR plasmid. The Gateway LR directional cloning system (Invitrogen Corp., Carlsbad, CA, USA) was utilized to subclone AaegOR coding regions into the pSP64t-RFA oocyte expression plasmid. Plasmids were purified using the GeneJet Plasmid Miniprep Kit (ThermoFisher Scientific, Waltham, MA, USA). Purified plasmids were sequenced in both directions to confirm coding regions.
(§2) Chemical compounds (S6 File) used in the deorphanization of AaegORs were purchased from Acros Organics (Morris, NJ, USA), Alfa Aesar (Ward Hill, MA, USA), and ThermoFisher Scientific (Waltham, MA, USA) at the highest purity available. Compounds were stored as 1M stocks in 100% DMSO. Serial dilutions of each compound were prepared in 10% DMSO and blended by chemical class.
(§3) pSP64t-RFA: AaegOR clones were linearized using Xbal, and cRNAs were synthesized using the mMESSAGE mMACHINE ® SP6 kit (Life Technologies, Carlsbad, CA, USA). Xenopus laevis stage V-VII oocytes purchased from Xenopus1 (Dexter, MI, USA) were stored at 18°C in Incubation medium (ND96 96 with 5% dialyzed horse serum, 50μg/mL gentamycin, 100μg/mL streptomycin, 100μg/mL penicillin, and 550μg/mL sodium pyruvate). 30nL of cRNA was injected into multiple oocytes using a microinjection syringe pump (World Precision Instruments, Sarasota, FL, USA) maintained at 18°C for 48–72 hrs. Odorant blends were perfused across individual oocytes for 10–15 seconds, held at a resting membrane potential of -80 mV using an OC-725C oocyte clamp (Warner Instruments, LLC, Hamden, CT, USA). Induced currents were measured indirectly using the two-electrode voltage clamp technique (TEVC). Following each stimulus, currents were allowed to return to baseline before further stimulation. Data was captured using the Digidata 1550 B digitizer and PClamp10 software (Molecular Devices, San Jose, CA, USA). Concentration-response curves were generated by perfusing unitary odorants over oocytes at increasing concentrations from [10^-3M] to [10^-9M]. Data were analyzed using GraphPad Prism 8 (GraphPad Software Inc., La Jolla, CA, USA). At least two biological replicates were conducted at each concentration and for each compound. Data for at least seven oocytes responding to each compound was analyzed (S7 File).

[2] = target: T2, AaegOR31 (Aedes aegypti, UniProt Q16JU0); assay: Two-electrode voltage clamp of Xenopus laevis oocytes expressing AaegOR31/Orco (blends, unitary compounds, concentration-response); conditions: AaegOR31, compounds of blend Alcohols 1
T2 sequence (Q16JU0 1-381): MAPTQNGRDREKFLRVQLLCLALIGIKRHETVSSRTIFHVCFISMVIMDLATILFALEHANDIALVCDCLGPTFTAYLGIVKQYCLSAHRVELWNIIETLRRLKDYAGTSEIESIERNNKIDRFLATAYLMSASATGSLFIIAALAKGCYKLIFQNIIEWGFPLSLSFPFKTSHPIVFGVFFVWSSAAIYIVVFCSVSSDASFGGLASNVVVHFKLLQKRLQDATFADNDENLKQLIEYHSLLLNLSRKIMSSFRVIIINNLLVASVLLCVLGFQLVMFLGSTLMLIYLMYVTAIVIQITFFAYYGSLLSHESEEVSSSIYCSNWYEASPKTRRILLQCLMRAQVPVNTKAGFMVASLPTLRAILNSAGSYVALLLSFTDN
T2 sequence (Q178U6 1-478 partner): T1 sequence (Q178U6 1-478 partner)
Description: as §1, §2, §3

[3] = target: T3, AaegOR11 (Aedes aegypti, UniProt Q16PN4); assay: Two-electrode voltage clamp of Xenopus laevis oocytes expressing AaegOR11/Orco (blends, unitary compounds, concentration-response); conditions: for Normalized response, Average, unitary compounds of blend Terpenes 3: average over oocytes (9; fenchones 6); for Raw data (Responses in nA), unitary compounds of blend Terpenes 3: individual oocytes 1-9 (replicates); for Normalized response, unitary compounds of blend Terpenes 3: individual oocytes, normalized to cis-Decahydro-1-napthol = 100; for Raw data (Responses in nA), unitary compounds, additional oocytes: six further oocytes in columns without head (fenchone comparison with cis-Decahydro-1-napthol); for Raw Data (Responses in nA), concentration-response: oocytes 1-9
T3 sequence (Q16PN4 1-420): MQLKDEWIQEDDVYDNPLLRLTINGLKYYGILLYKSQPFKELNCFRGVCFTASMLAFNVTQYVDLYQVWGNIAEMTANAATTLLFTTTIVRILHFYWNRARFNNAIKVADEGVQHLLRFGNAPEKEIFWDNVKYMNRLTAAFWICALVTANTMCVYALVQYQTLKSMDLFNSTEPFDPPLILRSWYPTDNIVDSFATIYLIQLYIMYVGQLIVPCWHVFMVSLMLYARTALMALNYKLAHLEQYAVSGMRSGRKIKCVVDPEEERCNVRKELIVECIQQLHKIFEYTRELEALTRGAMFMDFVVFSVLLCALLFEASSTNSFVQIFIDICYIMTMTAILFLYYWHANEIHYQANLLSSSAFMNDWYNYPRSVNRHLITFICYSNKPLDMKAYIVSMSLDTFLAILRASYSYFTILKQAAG
T3 sequence (Q178U6 1-478 partner): T1 sequence (Q178U6 1-478 partner)
Description: as §1, §2, §3

[4] = individual oocytes (Oocyte 1-8)

**Q.** What does the source list for `CCCCO` [n-butanol]?
**A.** Normalized response, unitary compounds, Average ([1]; average of oocytes 1-7): 0.0; Raw data (Responses in nA), unitary compounds of Indoles 1, Alcohols 1, Alcohols 3 ([1]; individual oocytes 1-7): 0.0 nA; Normalized response, unitary compounds of Indoles 1, Alcohols 1, Alcohols 3 ([1]; normalized per oocyte, individual oocytes 1-7): 0.0; Normalized response, Average, Alcohols 1 unitary compounds ([2]; average of 8 oocytes): 0.0; Raw Data (Responses in nA), Alcohols 1 unitary compounds [2, 4]: 0.0 nA; Normalized response, Alcohols 1 unitary compounds ([2]; individual oocytes (Oocyte 1-8), normalized to the strongest compound per oocyte): 0.0

**Q.** What does the source list for `Cc1ccc(O)cc1` [p-cresol]?
**A.** Raw data (Responses in nA), unitary compounds of Indoles 1, Alcohols 1, Alcohols 3 ([1]; individual oocytes 1-7): 20.0 nA and 290.0 nA and 85.0 nA and 140.0 nA and 165.0 nA and 135.0 nA and 90.0 nA; Raw Data (Responses in nA), Alcohols 1 unitary compounds [2, 4]: 0.0 nA

**Q.** `C=C1CCC2(C(C)C)CC12` (centres unmarked) [Sabiene] was tested. Which “Normalized response, Average, unitary compounds of blend Terpenes 3” value [3] did it give?
**A.** 0.556

**Q.** And the “Raw data (Responses in nA), unitary compounds of blend Terpenes 3” value (from here on “Raw data … of blend Terpenes 3”) [3]?
**A.** 0 nA (8×) and 5 nA

**Q.** What about the “Normalized response, unitary compounds of blend Terpenes 3” value [3] of the same molecule?
**A.** 0.0 (8×) and 5.0

**Q.** Which “Normalized response, Average, unitary compounds of blend Terpenes 3” value [3] does the source give for `CC1(C)C(=O)[C@@]2(C)CCC1C2` (single isomer, unassigned; (+)) [(+) Fenchone] here?
**A.** 36.7

**Q.** What about the “Normalized response, unitary compounds of blend Terpenes 3” value [3] of the same molecule?
**A.** 40.0 and 50.0 (2×) and 30.0 and 25.0 (2×)

**Q.** And the “Raw data (Responses in nA), unitary compounds, additional oocytes” value [3]?
**A.** 10 nA

**Q.** Which results are given for `Cc1ccccc1O` [o-cresol]?
**A.** Raw data (Responses in nA), unitary compounds of Indoles 1, Alcohols 1, Alcohols 3 ([1]; individual oocytes 1-7): 0.0 nA and 110.0 nA and 25.0 nA and 35.0 nA and 50.0 nA and 45.0 nA and 15.0 nA; Raw Data (Responses in nA), Alcohols 1 unitary compounds [2, 4]: 0.0 nA

**Q.** `CC1(C)[C@H]2CC[C@]1(C)[C@H](O)C2` [(-)-Borneol] was tested. Which “Raw data … of blend Terpenes 3” value [3] did it give?
**A.** 0 nA

**Q.** `OC1CCCC2CCCCC12` (stereo not drawn) [cis-decahydro-1-napthol, cis-Decahydro-1-napthol] was tested. Which “Raw Data (Responses in nA), concentration-response” value (“Raw Data … concentration-response” for short) ([3]; 1e-6 M) did it give?
**A.** 10.0 nA

**Q.** And the “Raw Data … concentration-response” value ([3]; 5e-6 M)?
**A.** 15.0 nA and 10.0 nA and 20.0 nA

**Q.** And the “Raw Data … concentration-response” value ([3]; 1e-5 M)?
**A.** 15.0 nA and 10.0 nA

**Q.** What about the “Raw Data … concentration-response” value ([3]; 0.0005 M) of the same molecule?
**A.** 90.0 nA and 60.0 nA and 100.0 nA and 50.0 nA and 65.0 nA

**Q.** What about the “Raw Data … concentration-response” value ([3]; 0.001 M) of the same molecule?
**A.** 70.0 nA and 40.0 nA and 80.0 nA and 60.0 nA and 45.0 nA

**Q.** And the EC50 ([3]; AaegOR11/Orco expressing oocytes, TEVC, concentration-response of normalized current)?
**A.** ~68.4 µM and 68.4 µM

**Q.** And the “magnitude of response of AaegOR11 to unitary compounds” value ([3]; AaegOR11/Orco expressing oocytes, TEVC, individual compounds)?
**A.** greater magnitude of response than (-)-fenchone or (+)-fenchone

**Q.** And the “Raw data … of blend Terpenes 3” value [3]?
**A.** 70 nA and 100 nA and 30 nA (2×) and 40 nA (2×) and 85 nA and 150 nA and 110 nA

**Q.** What about the “Raw data (Responses in nA), unitary compounds, additional oocytes” value [3] of the same molecule?
**A.** 20 nA
